Test results taken from patent US20180008587A1, “THIOHYDANTOIN ANDROGEN RECEPTOR ANTAGONISTS FOR THE TREATMENT OF CANCER” (Jaressen Pharmaceutica NV, priority 2016, published 2018).
Changes are numbered by the printed parent chain.

Experiments:
Format in all cases: cell-based
[1] = target: T1, wild-type Androgen Receptor (AR-wt) (Homo sapiens, UniProt P10275); assay: LNCaP-AR-wt ANT reporter assay (ARE firefly luciferase, antagonist mode); settings: for IC50: antagonist mode, 400 pM R-1881 challenge, −Log10(IC50 [Molar]), read-out: LNCaP-AR-wt ANT pIC50 (converted); for Emax: maximum % inhibition of R1881 control response over tested concentration range, read-out: LNCaP-AR-wt ANT MAX % Inh
T1 construct: expressed in transfected cells; host or cells: LNCaP (LNCaP AR (cs))
T1 sequence (P10275 1-920): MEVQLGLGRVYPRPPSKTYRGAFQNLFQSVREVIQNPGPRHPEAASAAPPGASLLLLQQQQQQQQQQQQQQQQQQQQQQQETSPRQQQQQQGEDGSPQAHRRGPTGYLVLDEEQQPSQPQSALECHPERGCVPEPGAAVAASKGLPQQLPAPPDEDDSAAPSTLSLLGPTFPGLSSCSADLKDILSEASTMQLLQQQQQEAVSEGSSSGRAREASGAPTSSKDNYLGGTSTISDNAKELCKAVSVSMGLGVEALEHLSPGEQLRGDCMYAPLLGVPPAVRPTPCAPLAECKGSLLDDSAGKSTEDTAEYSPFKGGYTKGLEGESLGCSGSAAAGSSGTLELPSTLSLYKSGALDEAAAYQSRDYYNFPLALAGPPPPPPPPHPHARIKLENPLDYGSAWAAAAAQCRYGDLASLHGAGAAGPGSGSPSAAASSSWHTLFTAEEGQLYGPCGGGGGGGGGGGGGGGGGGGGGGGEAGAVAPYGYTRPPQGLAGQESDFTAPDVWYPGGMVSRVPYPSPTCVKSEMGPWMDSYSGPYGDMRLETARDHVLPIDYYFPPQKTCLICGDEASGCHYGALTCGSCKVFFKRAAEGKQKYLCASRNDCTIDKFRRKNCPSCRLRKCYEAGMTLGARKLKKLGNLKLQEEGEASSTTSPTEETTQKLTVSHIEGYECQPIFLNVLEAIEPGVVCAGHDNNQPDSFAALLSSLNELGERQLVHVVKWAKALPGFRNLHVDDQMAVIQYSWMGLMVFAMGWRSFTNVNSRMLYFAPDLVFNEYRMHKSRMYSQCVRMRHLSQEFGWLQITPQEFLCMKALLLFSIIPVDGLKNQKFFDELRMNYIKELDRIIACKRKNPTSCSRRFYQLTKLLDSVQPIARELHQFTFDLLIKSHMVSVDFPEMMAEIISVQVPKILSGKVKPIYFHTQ
In short: (§1)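 Cells: stable LNCaP pools, AR-wt or AR-F876L, in charcoal-stripped serum. Agonist challenge for antagonist mode was 400 pM (WT) and 600 pM (F876L). Luminescence was measured after 20-24 h incubation.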

[2] = target: T2, F876L mutant Androgen Receptor (AR-F876L) (Homo sapiens, UniProt P10275, F877L); assay: LNCaP-AR-F876L ANT reporter assay (ARE firefly luciferase, antagonist mode); settings: for Emax: maximum % inhibition of R1881 control response over tested concentration range, read-out: LNCaP-AR-F876L ANT MAX % Inh; for IC50: read-out: LNCaP-AR-F876L ANT pIC50 (converted)
T2 construct: expressed in transfected cells; host or cells: LNCaP (LNCaP F876L)
T2 sequence (P10275 1-920 F877L): T1 sequence (P10275 1-920) with F877L
In short: as §1

[3] = target: T2, F876L mutant Androgen Receptor (AR-F876L); assay: LNCaP-AR-F876L AG reporter assay (ARE firefly luciferase, agonist mode); settings: for EC50: agonist mode, −Log10(EC50 [Molar]), read-out: LNCaP-AR-F876L AG pEC50 (converted); for Emax: maximum % stimulation (agonist response) over tested concentration range, read-out: LNCaP-AR-F876L AG MAX % Stim
In short: as §1

[4] = target: T1, wild-type Androgen Receptor (AR-wt); assay: LNCaP-AR-wt AG reporter assay (ARE firefly luciferase, agonist mode); settings: for EC50: agonist mode, −Log10(EC50 [Molar]), read-out: LNCaP-AR-wt AG pEC50 (converted); for Emax: maximum % stimulation (agonist response) over tested concentration range, read-out: LNCaP-AR-wt AG MAX % Stim
In short: as §1

IC50 [1] [nM]	Emax [1] [%]	Emax [2] [%]	IC50 [2] [nM]	EC50 [3] [nM]	Emax [3] [%]	EC50 [4] [nM]	Emax [4] [%]	Structure (SMILES)
240	97.5	101	145	> 15100	0	> 15100	-0.1	N#Cc1ncc(N2C(=O)C3(CCC3)N(c3ccc(OC4CCNCC4)cc3)C2=S)cc1C(F)(F)F [Cpd 35, 5-[5-oxo-8-[4-(4-piperidyloxy)phenyl]-7-thioxo-6,8-diazaspiro[3.4]octan-6-yl]-3-(trifluoromethyl)pyridine-2-carbonitrile]
240	101	99.5	162	> 15100	0.2	> 15100	-0.3	N#Cc1ncc(N2C(=O)C3(CCC3)N(c3ccc(C(=O)NCCCO)c(F)c3)C2=S)cc1C(F)(F)F [Cpd 40, 4-[6-[6-cyano-5-(trifluoromethyl)-3-pyridyl]-5-oxo-7-thioxo-6,8-diazaspiro[3.4]octan-8-yl]-2-fluoro-N-(3-hydroxypropyl)benzamide]
	101	99.8			0.8		0.2	CN1CCC(Oc2ccc(N3C(=S)N(c4cnc(C#N)c(C(F)(F)F)c4)C(=O)C34CCC4)cc2)CC1 [Cpd 85, 5-[8-[4-[(1-methyl-4-piperidyl)oxy]phenyl]-5-oxo-7-thioxo-6,8-diazaspiro[3.4]octan-6-yl]-3-(trifluoromethyl)pyridine-2-carbonitrile]
